# Experimental data published in patent US20250102494A1, “COMPOSITION FOR PREDICTING OXALIPLATIN DRUG EFFICACY, AND USE THEREOF” (SAMSUNG LIFE PUBLIC WELFARE FOUNDATION, priority 2022, published 2025).
# Columns and labels:
# Assay type in all cases: cell-based
# [1] = system: Sensitive Cell Line (HCT116, RKO, SW620, LS147T); test: Average oxaliplatin AUC over sensitive colorectal cancer cell lines
# Experimental: (§1) Four hours after the medium change, the cells were treated with oxaliplatin, 5-FU, Irinotecan, and folinic acid. Five days after drug treatment, intracellular ATP expression was determined using the ATPlite assay kit (PerkinElmer), and the data were expressed in terms of cell viability, IC50, and AUC.
# (§2) As the standard for confirming that cells are sensitive to the drug, the response of the cells to the drug was assumed to be 100%, and the luminescence value of surviving cells after drug treatment was analyzed and compared with the quantified drug response value.
# (§3) Based on the assumption that the factor that increases the resistance of the organoids to oxaliplatin is an activator or inhibitor that changes the phenotype, the organoids prepared by excluding some or all of activators and inhibitors as shown in Table 4 below were treated with oxaliplatin.
# (§4) In order to confirm reduced resistance to oxaliplatin, ECT116, RKO, SW620, and LS147T cell lines, which are highly sensitive to oxaliplatin, and HT29, HTC15, CoLo205, and Lovo cell lines, which are low sensitive to oxaliplatin, were used.
# (§5) When the above results were combined with the results shown by cell lines with high sensitivity to oxaliplatin and cell lines with low sensitivity to oxaliplatin, the result data shown in FIGS. 23 and 24 and Tables 5 to 7 below were obtained.
# [2] = system: Resistant Cell Line (HT29, HTC15, CoLo205, Lovo); test: Average oxaliplatin AUC over resistant colorectal cancer cell lines
# Experimental: as §1, §2, §3, §4, §5
# HT29 cells = test: ATPlite cell viability after oxaliplatin, HT29 cells in organoid culture media
# Experimental: (§6) Advanced DMEM/F12+++ (hereinafter referred to as “Ad/DF+++”) was used to produce colorectal cancer organoids. Ad/DF+++ was refrigerated at 4° C. until use, and was used in a cold state during cell washing. Ad/DF+++ medium containing the reagents shown in Table 1 below along with Ad/DF 1× (Gibco) was prepared.
# (§7) After preparing the Ad/DF+++ medium containing the above reagents, an appropriate amount of Matrigel (Corning #356231) was added so that the ratio between Matrigel and cells suspended in the Ad/DF+++ medium was 7:3. Then, the cells were plated on low attachment well plates at an appropriate density. The density and the type and number of well plates were determined according to the characteristics of each cell type. […]
# (§8) If the organoids were expanded as needed for the experiment, the medium was carefully removed, taking care not to touch the Matrigel. […] After suspending the pellet in Ad/DF+++, the cells were counted and diluted with medium according to the required number of cells. […]
# as §1, with “AUC. […]” for “AUC.”
# HCT15 cells = test: ATPlite cell viability after oxaliplatin, HCT15 cells in organoid culture media
# Experimental: as §6, §7, §8
# as §1, with “AUC. […]” for “AUC.”
# [3] = system: 166T colorectal cancer patient-derived organoids; test: Cell viability after oxaliplatin, 2D and 3D culture of patient-derived organoids; settings: for cell viability, Ex1 medium compared with control (CRC): FIGS. 26 and 27
# Experimental: as §1
# In order to evaluate the difference between 2D culture and 3D culture performed using the above medium compositions, 166T CoLvM patient-derived organoids were cultured under 2D culture conditions and 3D culture conditions.
# LoVo cells = test: ATPlite cell viability after oxaliplatin, LoVo cells in organoid culture media
# Experimental: as §6, §7, §8
# as §1, with “AUC. […]” for “AUC.”
# SW620 cells = test: ATPlite cell viability after oxaliplatin, SW620 cells in organoid culture media
# Experimental: as §6
# (§9) After preparing the Ad/DF+++ medium containing the above reagents, an appropriate amount of Matrigel (Corning #356231) was added so that the ratio between Matrigel and cells suspended in the Ad/DF+++ medium was 7:3. Then, the cells were plated on low attachment well plates at an appropriate density. The density and the type and number of well plates were determined according to the characteristics of each cell type. The medium was prepared according to the composition shown in Table 2 below, and the cells were cultured (expanded) until the required level was reached while the medium was replaced every 3 to 4 days.
# If the organoids were expanded as needed for the experiment, the medium was carefully removed, taking care not to touch the Matrigel. The cells were separated from the Matrigel by pipetting about 20 times with 1 ml of cold Ad/DF+++. The cells in 1 to 4 wells per 6-well plate were collected in one 50 ml tube. If cells are collected from more than 4 wells into one tube, the Metrigel may not be washed properly. For this reason, the cells were placed in several tubes. Thereafter, Ad/DF+++ was poured to 20 to 50 ml of each tube, followed by centrifugation at 400 g for 3 minutes at 4° C. The cells were dissociated with 1 to 2 mL of TrypLE™ Express Enzyme (Gibco, 1264-013), transferred to low-attachment 24 well plates, and then treated with 10 μM of Y-27632. Next, the cells were cultured in a CO2 incubator for 5 minutes at 37° C. After pipetting about 20 times, whether the cells would be dissociated into single cells was checked by microscopic observation. If the cells were not dissociated into single cells, the culture under CO2 and pipetting processes were repeated. […] After suspending the pellet in Ad/DF+++, the cells were counted and diluted with medium according to the required number of cells. […]
# as §1
# (§10) As the standard for confirming that cells are sensitive to the drug, the response of the cells to the drug was assumed to be 100%, and the luminescence value of surviving cells after drug treatment was analyzed and compared with the quantified drug response value. […]
# LS147T cells = test: ATPlite cell viability after oxaliplatin, LS147T cells in organoid culture media
# Experimental: as §6, §9
# (§11) If the organoids were expanded as needed for the experiment, the medium was carefully removed, taking care not to touch the Matrigel. The cells were separated from the Matrigel by pipetting about 20 times with 1 ml of cold Ad/DF+++. The cells in 1 to 4 wells per 6-well plate were collected in one 50 ml tube. If cells are collected from more than 4 wells into one tube, the Metrigel may not be washed properly. For this reason, the cells were placed in several tubes. […] After suspending the pellet in Ad/DF+++, the cells were counted and diluted with medium according to the required number of cells. […]
# as §1, §10
# RKO cells = test: ATPlite cell viability after oxaliplatin, RKO cells in organoid culture media
# Experimental: as §6, §9, §11, §1, §10
compound,measurement,setting,value
O=C1[O][Pt]2([NH][C@@H]3CCCC[C@H]3[NH]2)[O]C1=O [oxaliplatin],EX1_AUC,"[1]; average over sensitive cell lines, Ex1 medium (inhibitors and activators)",396.08
same,EX2_AUC,"[1]; average over sensitive cell lines, Ex2 medium (no inhibitors, no activators)",347.78
same,normal_AUC,"[1]; average over sensitive cell lines, normal cell-line culture",274.55
same,"sensitivity to oxaliplatin, Ex2 compared with Ex1","[1]; cell lines with high sensitivity, FIG. 23",higher in Ex2 without both inhibitors and activators than in Ex1
same,EX1 − EX2 (AUC difference),[1]; sensitive cell lines,48.30
same,EX1_AUC,"[2]; average over resistant cell lines, Ex1 medium",420.02
same,EX2_AUC,"[2]; average over resistant cell lines, Ex2 medium",420.86
same,normal_AUC,"[2]; average over resistant cell lines, normal cell-line culture",391.80
same,"sensitivity to oxaliplatin, Ex2 compared with Ex1","[2]; cell lines with low sensitivity, FIG. 24",no difference in sensitivity to oxaliplatin between Ex1 and Ex2
same,EX1 − EX2 (AUC difference),[2]; resistant cell lines,−0.85
same,"AUC value, Ex1 to Ex4 compared","HT29 cells; HT29, FIG. 15","Ex1 to Ex3 showed similar AUC values, but Ex4 showed slightly lower AUC values than Ex1 to Ex3"
same,cell viability versus oxaliplatin concentration,"HT29 cells; HT29 cell line and Ex1 to Ex4, FIG. 16",did not decrease under all the culture conditions
same,cell viability,"HCT15 cells; Ex2 and Ex4, log [oxaliplatin] value 2, FIG. 18",≥ 50%
same,"AUC value, Ex1 to Ex4 compared",HCT15 cells; FIG. 17,decreased under the organoid culture conditions of Ex2
same,"cell viability, Ex2 medium compared with control",[3]; 2D and 3D culture,cell viabilities similar to those of the control group
same,"cell viability, Ex1 medium compared with control (CRC)",[3]; 2D culture,cell viability similar to that of the control (CRC) cell line
same,"cell viability, Ex1 medium compared with control (CRC)",[3]; 3D culture,higher cell viability than that of the control (CRC) cell line
same,cell viability,"LoVo cells; LoVo organoids, log [oxaliplatin] values approaching 2, FIG. 22",≥ 50%
same,AUC values of Ex2 to Ex4 compared with Ex1,"LoVo cells; LoVo, FIG. 21",higher than that of Ex1
same,"AUC value, Ex2 compared with other organoid culture conditions","SW620 cells; SW620, FIG. 9",lower in the organoid culture conditions of Ex2
same,"AUC value, Ex3 and Ex4 compared with Ex1","SW620 cells; SW620, FIG. 9",no significant difference in AUC values from Ex1
same,"IC50 value, Ex2 compared with Ex1","SW620 cells; SW620, FIG. 10",lower in Ex2 than in Ex1
same,cell viability,"SW620 cells; SW620 in Ex2, log [oxaliplatin] value 1, FIG. 11",50%
same,"AUC value, Ex2 compared with other organoid culture conditions",LS147T cells; FIG. 12,lower in the organoid culture conditions of Ex2
same,"AUC value, Ex3 and Ex4 compared with Ex1",LS147T cells; FIG. 12,no difference in AUC values from Ex1
same,"IC50 value, Ex2 compared with Ex1",LS147T cells; FIG. 13,higher in Ex2 than in Ex1
same,"AUC value, Ex1 to Ex4 compared",RKO cells; FIG. 6,the lowest in the organoid culture conditions of Ex2
same,"IC50 value, Ex2 compared with Ex1",RKO cells; FIG. 7,significantly lower in Ex2 than in Ex1
same,cell viability versus oxaliplatin concentration,"RKO cells; MEM control, Ex1, Ex2, FIG. 8","fastest decrease in cell viability, followed by Ex2"
